Experiments:
Spodoptera littoralis = Spodoptera littoralis (Egyptian cotton leaf worm), cotton leaf discs sprayed, L1 larvae; assay type: in vivo; conditions: foliar, 72 h, application rate 200 ppm, 3 days after infestation, read-out: control in at least one of the categories (mortality, anti-feedant effect or growth inhibition)
Description: Cotton leaf discs were placed onto agar in 24-well microtiter plates and sprayed with aqueous test solutions prepared from 10′000 ppm DMSO stock solutions. After drying the leaf discs were infested with five L1 larvae. The samples were assessed for mortality, anti-feeding effect, and growth inhibition in comparison to untreated samples 3 days after infestation. Control of Spodoptera littoralis by a test sample is given when at least one of the categories mortality, anti-feedant effect, and growth inhibition is higher than the untreated sample.

Diabrotica balteata = Diabrotica balteata (corn root worm), maize sprouts sprayed, L2 larvae; assay type: in vivo; conditions: 96 h, application rate 200 ppm, 4 days after infestation, read-out: control in at least one of the categories (mortality or growth inhibition)
Description: Maize sprouts placed onto an agar layer in 24-well microtiter plates were treated with aqueous test solutions prepared from 10′000 ppm DMSO stock solutions by spraying. After drying, the plates were infested with L2 larvae (6 to 10 per well). The samples were assessed for mortality and growth inhibition in comparison to untreated samples 4 days after infestation. The following compounds gave an effect of at least 80% control in at least one of the categories (mortality or growth inhibition) at an application rate of 200 ppm: P1, P2, P3, P6, P7, P8, P10.

Plutella xylostella [1] = assay: Plutella xylostella (diamondback moth), 96-well artificial diet, eggs; assay type: in vivo; conditions: 216 h, application rate 500 ppm, 9 days after infestation, 96-well plates, read-out: control (mortality)
Description: 96-well microtiter plates containing artificial diet were treated with aqueous test solutions, prepared from 10′000 ppm DMSO stock solutions, by a liquid handling robot. After drying, eggs (˜30 per well) were infested onto a netted lid which was suspended above the diet. The eggs hatch and L1 larvae move down to the diet. The samples were assessed for mortality 9 days after infestation.

Chilo suppressalis = Chilo suppressalis (striped rice stemborer), artificial diet, L2 larvae; assay type: in vivo; conditions: 144 h, application rate 200 ppm, 6 days after infestation, read-out: control in at least one of the categories (mortality, anti-feedant effect or growth inhibition)
Description: 24-well microtiter plates with artificial diet were treated with aqueous test solutions prepared from 10′000 ppm DMSO stock solutions by pipetting. After drying, the plates were infested with L2 larvae (6-8 per well). The samples were assessed for mortality, anti-feeding effect, and growth inhibition in comparison to untreated samples 6 days after infestation. Control of Chilo suppressalis by a test sample is given when at least one of the categories mortality, anti-feedant effect, and growth inhibition is higher than the untreated sample.

Plutella xylostella [2] = assay: Plutella xylostella (diamond back moth), 24-well artificial diet, eggs; assay type: in vivo; conditions: 192 h, application rate 200 ppm, 8 days after infestation, 24-well plates, read-out: control in at least one of the categories (mortality or growth inhibition)
Description: 24-well microtiter plates with artificial diet were treated with aqueous test solutions prepared from 10′000 ppm DMSO stock solutions by pipetting. After drying, Plutella eggs were pipetted through a plastic stencil onto a gel blotting paper and the plate was closed with it. The samples were assessed for mortality and growth inhibition in comparison to untreated samples 8 days after infestation. The following compounds gave an effect of at least 80% control in at least one of the categories (mortality or growth inhibition) at an application rate of 200 ppm: P1, P2, P3, P7, P10.

Myzus persicae = Myzus persicae (green peach aphid): feeding/contact activity, sunflower leaf discs; assay type: in vivo; conditions: foliar, 144 h, application rate 200 ppm, 6 days after infestation, mixed ages
Description: Sunflower leaf discs were placed onto agar in a 24-well microtiter plate and sprayed with aqueous test solutions prepared from 10′000 ppm DMSO stock solutions. After drying, the leaf discs were infested with an aphid population of mixed ages. The samples were assessed for mortality 6 days after infestation.

melting point | SMILES | percent control (mortality, anti-feedant effect or growth inhibition) at 200 ppm (Spodoptera littoralis) | percent control (mortality or growth inhibition) at 200 ppm (Diabrotica balteata) | percent control (mortality or growth inhibition) at 200 ppm (Plutella xylostella [2]) | also measured
175 to 177 °C | CC(Nc1noc2ccc(Br)cc12)c1ncnn1-c1ccc(C#N)cn1 (centres unmarked) [P16, 6-[5-[1-[(5-bromo-1,2-benzoxazol-3-yl)amino]ethyl]-1,2,4-triazol-1-yl]pyridine-3-carbonitrile] | – | – | – | –
160 to 163 °C | CC(Nc1noc2c(Cl)cc(C(F)(F)F)cc12)c1nc(Br)nn1-c1ncccn1 (centres unmarked) [P9, N-[1-(5-bromo-2-pyrimidin-2-yl-1,2,4-triazol-3-yl)ethyl]-7-chloro-5-(trifluoromethyl)-1,2-benzoxazol-3-amine] | – | – | – | –
– | CC(c1nccnc1-c1ncccn1)N(CC1CC1)c1nn(C)c2c(Cl)cc(C(F)(F)F)cc12 (centres unmarked) [P8, 7-chloro-N-(cyclopropylmethyl)-1-methyl-N-[1-(3-pyrimidin-2-ylpyrazin-2-yl)ethyl]-5-(trifluoromethyl)indazol-3-amine] | ≥ 80% | ≥ 80% | – | mortality at 500 ppm (Plutella xylostella [1]): ≥ 80%
– | CC(Nc1nn(C)c2c(C(F)(F)F)cc(C(F)(F)F)cc12)c1ncnn1-c1ncccn1 (centres unmarked) [P6, 1-methyl-N-[1-(2-pyrimidin-2-yl-1,2,4-triazol-3-yl)ethyl]-5,7-bis(trifluoromethyl)indazol-3-amine] | ≥ 80% | ≥ 80% | – | percent control (mortality, anti-feedant effect or growth inhibition) at 200 ppm (Chilo suppressalis): ≥ 80%
195 to 197 °C | COC(=O)c1sc2c(C(F)(F)F)cc(C(F)(F)F)cc2c1NC(C)c1ncnn1-c1ccc(C#N)cn1 (centres unmarked) [P5, methyl 3-[1-[2-(5-cyano-2-pyridyl)-1,2,4-triazol-3-yl]ethylamino]-5,7-bis(trifluoromethyl)benzothiophene-2-carboxylate] | – | – | – | –
262 to 264 °C | CC(Nc1nn(C)c2c(Cl)cc(C(F)(F)F)cc12)c1nc(Br)nn1-c1ncccn1 (centres unmarked) [P11, N-[1-(5-bromo-2-pyrimidin-2-yl-1,2,4-triazol-3-yl)ethyl]-7-chloro-1-methyl-5-(trifluoromethyl)indazol-3-amine] | – | – | – | –
233 to 235 °C | CC(Nc1noc2ccc(Br)cc12)c1ncnn1-c1ncccn1 (centres unmarked) [P17, 5-bromo-N-[1-(2-pyrimidin-2-yl-1,2,4-triazol-3-yl)ethyl]-1,2-benzoxazol-3-amine] | – | – | – | –
– | CC(Nc1nn(C)c2c(C(F)(F)F)cc(C(F)(F)F)cc12)c1nc(Br)nn1-c1ncccn1 (centres unmarked) [P10, N-[1-(5-bromo-2-pyrimidin-2-yl-1,2,4-triazol-3-yl)ethyl]-1-methyl-5,7-bis(trifluoromethyl)indazol-3-amine] | – | ≥ 80% | ≥ 80% | mortality at 500 ppm (Plutella xylostella [1]): ≥ 80%; percent control (mortality, anti-feedant effect or growth inhibition) at 200 ppm (Chilo suppressalis): ≥ 80%
199 to 201 °C | CC(Nc1noc2c(F)cc(F)cc12)c1nccnc1-n1nccn1 (centres unmarked) [P13, 5,7-difluoro-N-[1-[3-(triazol-2-yl)pyrazin-2-yl]ethyl]-1,2-benzoxazol-3-amine] | – | – | – | –
– | CC(Nc1noc2c(F)cc(F)cc12)c1nccnc1-n1ccnn1 (centres unmarked) [P12, 5,7-difluoro-N-[1-[3-(triazol-1-yl)pyrazin-2-yl]ethyl]-1,2-benzoxazol-3-amine] | – | – | – | mortality at 200 ppm (Myzus persicae): ≥ 80%
– | COC(=O)c1cc(Cl)cc2c(N[C@@H](C)c3ncnn3-c3ccc(C#N)cn3)csc12 [P18, methyl 5-chloro-3-[[(1S)-1-[2-(5-cyano-2-pyridyl)-1,2,4-triazol-3-yl]ethyl]amino]benzothiophene-7-carboxylate] | – | – | – | mortality at 500 ppm (Plutella xylostella [1]): ≥ 80%
– | CC(c1nccnc1-c1ncccn1)N(CC1CC1)c1nn(C)c2c(C(F)(F)F)cc(C(F)(F)F)cc12 (centres unmarked) [P7, N-(cyclopropylmethyl)-1-methyl-N-[1-(3-pyrimidin-2-ylpyrazin-2-yl)ethyl]-5,7-bis(trifluoromethyl)indazol-3-amine] | ≥ 80% | ≥ 80% | ≥ 80% | percent control (mortality, anti-feedant effect or growth inhibition) at 200 ppm (Chilo suppressalis): ≥ 80%
192 to 194 °C | CC(Nc1c(C#N)sc2c(C(F)(F)F)cc(C(F)(F)F)cc12)c1ncnn1-c1ccc(C#N)cn1 (centres unmarked) [P4, 6-[5-[1-[[2-cyano-5,7-bis(trifluoromethyl)benzothiophen-3-yl]amino]ethyl]-1,2,4-triazol-1-yl]pyridine-3-carbonitrile] | – | – | – | –
– | CC(c1ncnn1-c1ccc(C#N)cn1)N(C)c1c(C#N)sc2c(C(F)(F)F)cc(C(F)(F)F)cc12 (centres unmarked) [P3, 6-[5-[1-[[2-cyano-5,7-bis(trifluoromethyl)benzothiophen-3-yl]-methyl-amino]ethyl]-1,2,4-triazol-1-yl]pyridine-3-carbonitrile] | – | ≥ 80% | ≥ 80% | percent control (mortality, anti-feedant effect or growth inhibition) at 200 ppm (Chilo suppressalis): ≥ 80%
– | C[C@H](Nc1snc2c(C(F)(F)F)cc(C(F)(F)F)cc12)c1ncnn1-c1ccc(C#N)cn1 [P2, 6-[5-[(1S)-1-[[5,7-bis(trifluoromethyl)-2,1-benzothiazol-3-yl]amino]ethyl]-1,2,4-triazol-1-yl]pyridine-3-carbonitrile] | ≥ 80% | ≥ 80% | ≥ 80% | –
– | CC(Nc1snc2c(C(F)(F)F)cc(C(F)(F)F)cc12)c1ncnn1-c1ncccn1 (centres unmarked) [P1, N-[1-(2-pyrimidin-2-yl-1,2,4-triazol-3-yl)ethyl]-5,7-bis(trifluoromethyl)-2,1-benzothiazol-3-amine] | ≥ 80% | ≥ 80% | ≥ 80% | –
